target: T1, human DGAT1 (Homo sapiens, UniProt O75907); assay: DGAT1 FlashPlate inhibition assay with DGAT1 membrane preparations; assay type: biochemical; conditions: IC50 values expressed in M; pIC50 = -logIC50; inhibition of DGAT1 activity
T1 construct: FLAG (N); made in house; host or cells: SF9 insect cells (baculovirus, pFastBac); total cell membranes used as the enzyme source
T1 sequence (O75907 1-488): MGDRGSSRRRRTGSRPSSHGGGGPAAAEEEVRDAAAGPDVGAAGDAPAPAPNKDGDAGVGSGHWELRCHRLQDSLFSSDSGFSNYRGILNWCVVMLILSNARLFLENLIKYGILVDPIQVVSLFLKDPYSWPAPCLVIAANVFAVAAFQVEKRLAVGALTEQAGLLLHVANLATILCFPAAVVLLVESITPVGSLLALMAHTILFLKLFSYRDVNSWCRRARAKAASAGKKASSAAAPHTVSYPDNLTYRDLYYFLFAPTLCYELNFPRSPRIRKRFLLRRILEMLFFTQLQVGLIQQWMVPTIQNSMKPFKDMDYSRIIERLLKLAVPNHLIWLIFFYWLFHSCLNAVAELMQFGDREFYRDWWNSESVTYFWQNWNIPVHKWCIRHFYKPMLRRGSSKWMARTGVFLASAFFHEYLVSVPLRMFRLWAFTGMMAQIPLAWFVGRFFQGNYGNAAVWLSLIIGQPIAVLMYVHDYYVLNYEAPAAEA
From the text: The inhibiting activity of the present compounds on DGAT1 activity was screened in a single well procedure assay using DGAT1 comprising membrane preparations and DGAT1 substrate comprising micelles and determining formed radio-active triacylglycerol coming in close proximity of a flashplate surface by radioluminescence.
Said assay is described in full detail in WO2006/067071, the content of which is incorporated herein by reference.
By DGAT1 activity is meant the transfer of coenzyme A activated fatty acids to the 3-position of 1,2-diacylglycerols, thus forming a triglyceride molecule, by enzyme DGAT1.
human DGAT1 (NM012079.2) was cloned into the pFastBac vector, containing translation start, a FLAG-tag at the N-terminus as described in literature and a viral Kozak sequence (AAX) preceding the ATG to improve expression in insect cells. Expression was done as described in literature (Cases, S., Smith, S. J., Zheng, Y., Myers H. M., Lear, S. R., Sande, E., Novak, S., Collins, C., Welch, C. B., Lusis, A. J., Erickson, S. K. and Farese, R. V. (1998) Proc. Natl. Acad. Sci. USA 95, 13018-13023.) using SF9 cells.
72 h transfected SF9 cells were collected by centrifugation (13000 rpm-15 min-4° C.) and lysed in 2×500 ml lysis buffer (0.1M Sucrose, 50 mM KCl, 40 mM KH2PO4, 30 mM EDTA pH 7.2. Cells were homogenized by cell disruptor. After centrifugation 1380 rpm-15 min-4° C. (SN discarded), pellet was resuspended in 500 ml lysis buffer and total cell membranes collected by ultracentrifugation at 34000 rpm (100 000 g) for 60 min (4° C.). The collected membranes were resuspended in lysis buffer, divided in aliquots and stored with 10% glycerol at −80° C. until use.
Add 1 ml dioleoyl-sn-glycerol (10 mg/ml) to 10 ml of L-α-phosphatidylcholine (1 mg/ml) and 10 ml of L-α-phosphatidyl-L-serine (1 mg/ml) in a thick glass recipient. Evaporate under nitrogen and put on ice for 15 minutes. Reconstitute in 10 ml Tris/HCl (10 mM, pH 7.4) by sonication on ice. The sonification process consists of sonification cycles of 10 seconds in the sonification bath followed by 10 seconds cool down on ice and repeating this sonification cycle till a homogeneous solution is obtained (takes about 15 minutes). The thus obtained micelles are stored at −20° C. till later use and contain DAG at a final concentration of 1.61 mM.
• 50 mM Tris-HCl (pH 7.4), 150 mM MgCl2, 1 mM EDTA, 0.2% BSA. b) N-ethylmaleimide, 5M • Dissolve 5 g into a final volume of 8 ml DMSO 100% and store at −20° C. in aliquots till later use. c) Substrate mix (for 1 384 well plate=3840 μl) • 612 μl micelles stock (51 μM final) • 16.6 μl oleoylCoA 9.7 mM • 23 μl [^3H]-oleoylCoA (49 Ci/mmol, 500 μCi/ml) • 3188.4 μl Tris pH 7.4, 10 mM d) Enzyme mix (for 1 384 well plate=3520 μl) (5 μg/ml) • Add 11.73 μl of DGAT membrane stock (1500 μg/ml stock) to 3508 μl assay buffer. e) Stop mix (for 1 384 well plate=7.68 ml) (250 mM) • Add 384 μl of N-ethylmaleimide (5M) to 3.456 ml DMSO 100%, and further dilute 3.84 ml of said solution with 3.84 ml DMSO 10%. Method
DGAT activity in membrane preparations was assayed in 50 mM Tris-HCl (pH 7.4), 150 mM MgCl2, 1 mM EDTA and 0.2% BSA, containing 50 μM DAG, […] PC/PS and 8.4 μM [^3H]-oleoylCoA (at a specific activity of 30 nCi/well) in a final volume of 50 μl in 384-well format using the red shifted Basic Image FlashPlate™ (Perkin Elmer Cat. No. SMP400).
In detail, 10 μl enzyme mix and 10 μl substrate mix were added to 30 μl of assay buffer, optionally in the presence of 1 μl DMSO (blank and controls) or 1 μl of the compound to be tested. This reaction mixture was incubated for 120 minutes at 37° C. and the enzymatic reaction stopped by adding 20 μl of the stop mix. The plates were sealed and the vesicles allowed to settle overnight at room temperature. Plates were centrifuged for 5 minutes at 1500 rpm and measured in Leadseeker. […]

Row | Compound | IC50 [nM]
1 | O=C(Nc1ccc(N2CCN(C(=O)Nc3ccccc3Cl)CC2)cc1)c1ccccc1-c1ccc(C(F)(F)F)cc1 [Compound 89] | 1700
2 | O=C(Nc1ccc(N2CCN(C(=O)Nc3ccccc3F)CC2)cc1)c1ccccc1-c1ccc(C(F)(F)F)cc1 [Compound 90] | 2950
3 | O=C(Nc1ccc(N2CCN(C(=O)Nc3ccccc3I)CC2)cc1)c1ccccc1-c1ccc(C(F)(F)F)cc1 [Compound 91] | 1510
4 | O=C(Nc1ccc(N2CCN(C(=O)Nc3ccccc3[N+](=O)[O-])CC2)cc1)c1ccccc1-c1ccc(C(F)(F)F)cc1 [Compound 92] | 2340
5 | CSc1ccccc1NC(=O)N1CCN(c2ccc(NC(=O)c3ccccc3-c3ccc(C(F)(F)F)cc3)cc2)CC1 [Compound 93] | 4790
6 | Cc1cccc(Cl)c1NC(=O)N1CCN(c2ccc(NC(=O)c3ccccc3-c3ccc(C(F)(F)F)cc3)cc2)CC1 [Compound 94] | 148
7 | Cc1cccc([N+](=O)[O-])c1NC(=O)N1CCN(c2ccc(NC(=O)c3ccccc3-c3ccc(C(F)(F)F)cc3)cc2)CC1 [Compound 95] | 407
8 | O=C(Nc1ccc(N2CCN(C(=O)Nc3c(F)cc(F)cc3Br)CC2)cc1)c1ccccc1-c1ccc(C(F)(F)F)cc1 [Compound 96] | 525
9 | O=C(Nc1ccc(N2CCN(C(=O)Nc3c(Br)cc(Br)cc3Br)CC2)cc1)c1ccccc1-c1ccc(C(F)(F)F)cc1 [Compound 97] | 490
10 | O=C(Nc1ccc(N2CCN(C(=O)Nc3c(F)cc(Br)cc3F)CC2)cc1)c1ccccc1-c1ccc(C(F)(F)F)cc1 [Compound 98] | 2630
11 | O=C(Nc1ccc(N2CCN(C(=O)Nc3c(Cl)cc(Cl)cc3Cl)CC2)cc1)c1ccccc1-c1ccc(C(F)(F)F)cc1 [Compound 99] | 1820
12 | Cc1cc(Br)cc(C)c1NC(=O)N1CCN(c2ccc(NC(=O)c3ccccc3-c3ccc(C(F)(F)F)cc3)cc2)CC1 [Compound 100] | 1550
13 | Cc1ccc([N+](=O)[O-])c(NC(=O)N2CCN(c3ccc(NC(=O)c4ccccc4-c4ccc(C(F)(F)F)cc4)cc3)CC2)c1C [Compound 101] | 525
14 | Cc1cc(C)c(NC(=O)N2CCN(c3ccc(NC(=O)c4ccccc4-c4ccc(C(F)(F)F)cc4)cc3)CC2)c(Cl)c1 [Compound 102] | 170
15 | Cc1cc(C)c(NC(=O)N2CCN(c3ccc(NC(=O)c4ccccc4-c4ccc(C(F)(F)F)cc4)cc3)CC2)c(Br)c1 [Compound 103] | 200
16 | Cc1cc(C)c(NC(=O)N2CCN(c3ccc(NC(=O)c4ccccc4-c4ccc(C(F)(F)F)cc4)cc3)CC2)c(C)c1Br [Compound 104] | 2000
17 | O=C(Nc1ccc(N2CCN(C(=O)Nc3ccccc3Oc3ccccc3)CC2)cc1)c1ccccc1-c1ccc(C(F)(F)F)cc1 [Compound 105] | 3310
18 | O=C(Nc1ccc(N2CCN(C(=O)Nc3ccc4c(c3)OCCO4)CC2)cc1)c1ccccc1-c1ccc(C(F)(F)F)cc1 [Compound 106] | 7240
19 | C=CCNC(=O)N1CCC(c2ccc(NC(=O)c3ccccc3-c3ccc(C(F)(F)F)cc3)cc2)CC1 [Compound 107] | 2450
20 | CCc1ccccc1NC(=O)N1CCC(c2ccc(NC(=O)c3ccccc3-c3ccc(C(F)(F)F)cc3)cc2)CC1 [Compound 108] | 4470

Row | Compound | IC50 [nM]
21 | CC(C)c1ccccc1NC(=O)N1CCC(c2ccc(NC(=O)c3ccccc3-c3ccc(C(F)(F)F)cc3)cc2)CC1 [Compound 109] | 9550
22 | CCc1cccc(C)c1NC(=O)N1CCC(c2ccc(NC(=O)c3ccccc3-c3ccc(C(F)(F)F)cc3)cc2)CC1 [Compound 110] | 955
23 | COc1cccc(OC)c1NC(=O)N1CCC(c2ccc(NC(=O)c3ccccc3-c3ccc(C(F)(F)F)cc3)cc2)CC1 [Compound 111] | 4570
24 | Cc1cc(C)c(NC(=O)N2CCC(c3ccc(NC(=O)c4ccccc4-c4ccc(C(F)(F)F)cc4)cc3)CC2)c(C)c1 [Compound 112] | 269
25 | Cc1cccc(Cl)c1NC(=O)N1CCC(c2ccc(NC(=O)c3ccccc3-c3ccc(C(F)(F)F)cc3)cc2)CC1 [Compound 113] | 1070
26 | O=C(Nc1ccc(C2CCN(C(=O)Nc3c(F)cc(F)cc3Br)CC2)cc1)c1ccccc1-c1ccc(C(F)(F)F)cc1 [Compound 114] | 1230
27 | Cc1cc(Br)cc(C)c1NC(=O)N1CCC(c2ccc(NC(=O)c3ccccc3-c3ccc(C(F)(F)F)cc3)cc2)CC1 [Compound 115] | 1950
28 | Cc1ccc([N+](=O)[O-])c(NC(=O)N2CCC(c3ccc(NC(=O)c4ccccc4-c4ccc(C(F)(F)F)cc4)cc3)CC2)c1C [Compound 116] | 2190
29 | Cc1cc(C)c(NC(=O)N2CCC(c3ccc(NC(=O)c4ccccc4-c4ccc(C(F)(F)F)cc4)cc3)CC2)c(Cl)c1 [Compound 117] | 316
30 | Cc1cc(C)c(NC(=O)N2CCC(c3ccc(NC(=O)c4ccccc4-c4ccc(C(F)(F)F)cc4)cc3)CC2)c(Br)c1 [Compound 118] | 631
31 | CCCNC(=O)N1CC=C(c2ccc(NC(=O)c3ccccc3-c3ccc(C(F)(F)F)cc3)cc2)CC1 [Compound 119] | 4680
32 | O=C(Nc1ccc(C2=CCN(C(=O)NCC3CCCCC3)CC2)cc1)c1ccccc1-c1ccc(C(F)(F)F)cc1 [Compound 120] | 4270
33 | O=C(Nc1ccc(C2=CCN(C(=O)NCc3ccccc3)CC2)cc1)c1ccccc1-c1ccc(C(F)(F)F)cc1 [Compound 121] | 4900
34 | O=C(Nc1ccc(C2=CCN(C(=O)NCCCc3ccccc3)CC2)cc1)c1ccccc1-c1ccc(C(F)(F)F)cc1 [Compound 122] | 1510
35 | COc1ccc(CNC(=O)N2CC=C(c3ccc(NC(=O)c4ccccc4-c4ccc(C(F)(F)F)cc4)cc3)CC2)cc1 [Compound 123] | 4170
36 | CN(C)c1ccc(NC(=O)N2CC=C(c3ccc(NC(=O)c4ccccc4-c4ccc(C(F)(F)F)cc4)cc3)CC2)cc1 [Compound 124] | 6760
37 | CCOC(=O)c1cccc(C(=O)Nc2ccc(N3CCN(C(=O)Nc4c(Cl)cccc4Cl)CC3)cc2)c1 [Compound 125] | 2.82
38 | O=C(Nc1ccc(N2CCN(C(=O)Nc3c(Cl)cccc3Cl)CC2)cc1)c1ccc(-c2ccccn2)cc1 [Compound 126] | 9.55
39 | CC(C)OC(=O)c1ccc(-c2cccc(C(=O)Nc3ccc(N4CCN(C(=O)Nc5c(Cl)cccc5Cl)CC4)cc3)c2)cc1 [Compound 127] | 25.1
40 | Cc1cccc(C)c1NC(=O)N1CCC(c2ccc(NC(=O)c3ccccc3-c3ccc(C(F)(F)F)cc3)cc2)CC1 [Compound 128] | 661

From patent US9227935B2, “Piperidine/piperazine derivatives” (Janssen Pharmaceutica N.V., priority 2007, dated 2016)
